Assay results: US12144365B2, “Emulsions and derivatives for infusing hydrophobic active agents into an edible product” (priority 2021, dated 2024)

Experiment: Potency loss of actives infused into isomalt based candy at 300° F.
Format: physicochemical

Compound: C=C(C)[C@@H]1CCC(C)=C[C@H]1c1c(O)cc(CCCCC)cc1O [CBD, cannabidiol, reference compound]
- Potency loss %: 300° F. for 5 minutes, Infused by Quillaja extract emulsion: −5%
- Potency loss %: 300° F. for 5 minutes, Infused by gum acacia emulsion: −3%
- Potency loss %: 300° F. for 15 minutes, Infused by Quillaja extract emulsion: −4%
- Potency loss %: 300° F. for 15 minutes, Infused by gum acacia emulsion: −2%

Compound: CCCCCc1cc(O)c2c(c1)OC(C)(C)c1ccc(C)cc1-2 [CBN, cannabinol]
- Potency loss %: 300° F. for 5 minutes, Infused by Quillaja extract emulsion: −1%
- Potency loss %: 300° F. for 5 minutes, Infused by gum acacia emulsion: 0%
- Potency loss %: 300° F. for 15 minutes, Infused by Quillaja extract emulsion: −1%
- Potency loss %: 300° F. for 15 minutes, Infused by gum acacia emulsion: 0%

Compound: C=C(C)[C@H]1CC=C(C)CC1 [Limonene, limonene]
- Potency loss %: 300° F. for 5 minutes, Infused by Quillaja extract emulsion: −37%
- Potency loss %: 300° F. for 5 minutes, Infused by gum acacia emulsion: −12%
- Potency loss %: 300° F. for 15 minutes, Infused by Quillaja extract emulsion: −69%
- Potency loss %: 300° F. for 15 minutes, Infused by gum acacia emulsion: −17%

Compound: C=CC(=C)CCC=C(C)C [Myrcene, myrcene]
- Potency loss %: 300° F. for 5 minutes, Infused by Quillaja extract emulsion: −26%
- Potency loss %: 300° F. for 5 minutes, Infused by gum acacia emulsion: −10%
- Potency loss %: 300° F. for 15 minutes, Infused by Quillaja extract emulsion: −51%
- Potency loss %: 300° F. for 15 minutes, Infused by gum acacia emulsion: −15%

Compound: CCCCCc1cc(O)c2c(c1)OC(C)(C)[C@@H]1CCC(C)=C[C@@H]21 [THC, tetrahydrocannabinol, reference compound]
- Potency loss %: 300° F. for 5 minutes, Infused by Quillaja extract emulsion: −15%
- Potency loss %: 300° F. for 5 minutes, Infused by gum acacia emulsion: −8%
- Potency loss %: 300° F. for 15 minutes, Infused by Quillaja extract emulsion: −25%
- Potency loss %: 300° F. for 15 minutes, Infused by gum acacia emulsion: −16%
